Experimental data: patent EP4722203A1, “3,4-DIHYDROPHTHALAZIN-1(2H)-ONE DERIVATIVE, AND PREPARATION METHOD THEREFOR AND USE THEREOF” (Academy of Military Medical Sciences, priority 2023, dated 2024)

Experiments:
Assay type in all cases: cell-based
NCI-H929 cells = assay: Antiproliferative activity, CCK-8 assay; settings: Homo sapiens, 144 hours incubation, CCK-8, absorbance at 450 nm, read-out: IC50 (µM) H-929
Description: (§1) The cell models used in this example were human hematologic tumor cells, including NCI-H929, RPMI-8226, MV-4-11, U937 and WSU-DLCL-2. Some of the compounds of the present invention were selected to determine their inhibitory activity against the proliferation of NCI-H929, RPMI-8226, MV-4-11, U937, and WSU-DLCL-2 cells.
(§2) • ① The selected compounds were dissolved in DMSO to prepare 10 mM stock solutions. Compounds used within three months should be stored at room temperature in a desiccator; others could be stored at -20°C for long-term storage. • ② The above stock solutions and the positive reference compound pomalidomide were diluted with DMSO. Their initial concentrations were 10 µM. In the experiments of NCI-H929 and RPMI-8226 cells, 3-fold serial dilution with 11 concentration points was performed, with the lowest concentration of 0.00047 µM. The resulting solutions were shaken on a shaker for 5 minutes.
(§3) • ① The NCI-H929, RPMI-8226, MV-4-11, U937, and WSU-DLCL-2 cells in logarithmic growth phase were inoculated in a 96-well plate, 20,000 to 30,000 cells per well, and the plate was pre-cultured for 24 hours in an incubator (at 37°C and 5% CO2). • ② The culture medium in the plate was replaced, and the compounds and the positive control with corresponding concentrations were added to the plated at a volume of 50 µl. • ③ The plate was incubated for 144 hours in an incubator, then 15 µl of CCK-8 solution was added to each well, and incubated in the incubator for another 1-4 hours. • ④ The absorbance at 450 nm was measured using a microplate reader.
(§4) • ① Calculating % Inhibition: [formula] • ② Calculating IC50 value of compound and plotting dose-response curve: The IC50 value was calculated by fitting the % Inhibition and the logarithm of compound concentration to a nonlinear regression (dose response-variable slope) by using GraphPad 6.0. • Y = Bottom + (Top - Bottom) / (1 + 10^((LogIC50 - X) * HillSlope)) • X: log of inhibitor concentration; Y: % Inhibition.
(§5) After calculating % Inhibition, a dose-response curve was plotted with the logarithm of the test compound concentration as the x-axis and the average cell viability as the y-axis, and the IC50 value was obtained by fitting.

MV-4-11 cells = assay: Antiproliferative activity, CCK-8 assay; settings: Homo sapiens, MV4-11; 144 hours incubation, CCK-8, absorbance at 450 nm
Description: as §1, §2, §3, §4, §5

U937 cells = assay: Antiproliferative activity, CCK-8 assay; settings: Homo sapiens, U-937; 144 hours incubation, CCK-8, absorbance at 450 nm
Description: as §1, §2, §3, §4, §5

RPMI-8226 cells = assay: Antiproliferative activity, CCK-8 assay; settings: Homo sapiens, 144 hours incubation, CCK-8, absorbance at 450 nm
Description: as §1, §2, §3, §4, §5

WSU-DLCL-2 cells = assay: Antiproliferative activity, CCK-8 assay; settings: Homo sapiens, WSUDLCL2; 144 hours incubation, CCK-8, absorbance at 450 nm
Description: as §1, §2, §3, §4, §5

[1] = system: RPMI-8226-Lenalidomide-R cells; assay: Antiproliferative activity against resistant cells, CCK-8 assay; settings: Homo sapiens, 144 hours incubation
Description: (§6) In this example, lenalidomide-resistant human multiple myeloma cells, including NCI-H929 (NCI-H929-Lenalidomide-R) and RPMI-8226 (RPMI-8226-Lenalidomide-R), and pomalidomide-resistant human multiple myeloma cells, including NCI-H929 (NCI-H929-pomalidomide-R) and RPMI-8226 (RPMI-8226-pomalidomide-R), were selected as cell models to determine the inhibitory activity of compound I-8 of the present invention against the proliferation of the resistant cells.
(§7) • ① I-8 was dissolved in DMSO to prepare a 10 mM stock solution. Compounds used within three months should be stored at room temperature in a desiccator; others could be stored at -20°C for long-term storage. • ② The I-8 stock solution and the reference compounds lenalidomide and pomalidomide were all diluted with DMSO. Their initial concentrations were 10 µM. In the experiments of lenalidomide-resistant human multiple myeloma cells (NCI-H929 (NCI-H929-Lenalidomide-R) and RPMI-8226 (RPMI-8226-Lenalidomide-R) and pomalidomide-resistant human multiple myeloma cells (NCI-H929 (NCI-H929-pomalidomide-R) and RPMI-8226 (RPMI-8226-pomalidomide-R), 3-fold serial dilution with 11 concentration points was performed, with the lowest concentration of […]. The resulting solutions were shaken on a shaker for 5 minutes.
(§8) • ① The NCI-H929-Lenalidomide-R, RPMI-8226-Lenalidomide-R, NCI-H929-pomalidomide-R, and RPMI-8226-pomalidomide-R cells in logarithmic growth phase were inoculated in a 96-well plate, 20,000 to 30,000 cells per well, and the plate was pre-cultured for 24 hours in an incubator (at 37°C and 5% CO2). • ® The culture medium in the plate was replaced, and the compounds and the positive controls with corresponding concentrations were added to the plated at a volume of 50 µL. • ③ The plate was incubated for 144 hours in an incubator, then 15 µL of CCK-8 solution was added to each well, and the plate was incubated in the incubator for another 1-4 hours. • ④ The absorbance at 450 nm was measured using a microplate reader.
as §4, with “6.0.” for “6.0. •”, “(Top−Bottom)/(1+10^(∧)((LogIC50−X)*HillSlope)) [formula]” for “(Top - Bottom) / (1 + 10^((LogIC50 - X) * HillSlope)) •”
as §5

[2] = system: NCI-H929-pomalidomide-R cells; assay: as above; settings: Homo sapiens, 144 hours incubation
Description: as §6, §7, §8
as §4, with “6.0.” for “6.0. •”, “(Top−Bottom)/(1+10^(∧)((LogIC50−X)*HillSlope)) [formula]” for “(Top - Bottom) / (1 + 10^((LogIC50 - X) * HillSlope)) •”
as §5

[3] = system: NCI-H929-Lenalidomide-R cells; assay: as above; settings: Homo sapiens, 144 hours incubation
Description: as §6, §7, §8
as §4, with “6.0.” for “6.0. •”, “(Top−Bottom)/(1+10^(∧)((LogIC50−X)*HillSlope)) [formula]” for “(Top - Bottom) / (1 + 10^((LogIC50 - X) * HillSlope)) •”
as §5

[4] = system: RPMI-8226-pomalidomide-R cells; assay: as above; settings: Homo sapiens, 144 hours incubation
Description: as §6, §7, §8
as §4, with “6.0.” for “6.0. •”, “(Top−Bottom)/(1+10^(∧)((LogIC50−X)*HillSlope)) [formula]” for “(Top - Bottom) / (1 + 10^((LogIC50 - X) * HillSlope)) •”
as §5

| Structure (SMILES) | IC50 (NCI-H929 cells) [µM] | IC50 (MV-4-11 cells) [µM] | IC50 (U937 cells) [µM] | IC50 (RPMI-8226 cells) [µM] | IC50 [1] [µM] | IC50 [2] [µM] | IC50 [3] [µM] | IC50 [4] [µM] | IC50 (WSU-DLCL-2 cells) [µM] |
| --- | --- | --- | --- | --- | --- | --- | --- | --- | --- |
| Nc1cccc2c1CN(C1CCC(=O)NC1=O)C2=O (centres unmarked) [Lenalidomide] |  |  |  |  | > 100 | > 100 | > 100 | > 100 |  |
| CN1Cc2cc(N)ccc2C(=O)N1C1CCC(=O)NC1=O (centres unmarked) [I-10, 3-(6-amino-3-methyl-1-oxo-3,4-dihydrophthalazin-2(1H)-yl)piperidin-2,6-dione] | 5.85 | 0.215 | > 10 | 0.38 |  |  |  |  | 0.7 |
| CN1Cc2c(cccc2[N+](=O)[O-])C(=O)N1C1CCC(=O)NC1=O (centres unmarked) [I-9, 3-(3-methyl-5-nitro-1-oxo-3,4-dihydrophthalazin-2(1H)-yl)piperidin-2,6-dione] | > 10 | 0.39 | > 10 | 0.457 |  |  |  |  | 0.23 |

Second part, led by results:

| IC50 (NCI-H929 cells) [µM] | IC50 (MV-4-11 cells) [µM] | IC50 (U937 cells) [µM] | IC50 (RPMI-8226 cells) [µM] | IC50 [1] [µM] | IC50 [2] [µM] | IC50 [3] [µM] | IC50 [4] [µM] | Structure (SMILES) | IC50 (WSU-DLCL-2 cells) [µM] |
| --- | --- | --- | --- | --- | --- | --- | --- | --- | --- |
| 0.028 | 0.0155 | 0.0348 | 0.442 |  |  |  |  | CN1Cc2c(NCc3ccc(CN4CCN(c5ccc(C#N)cc5)CC4)cc3)cccc2C(=O)N1C1CCC(=O)NC1=O (centres unmarked) [I-7] | 0.053 |
| 0.85 | > 10 | 1.11 | 0.204 |  |  |  |  | CN1Cc2c(cc(F)cc2[N+](=O)[O-])C(=O)N1C1CCC(=O)NC1=O (centres unmarked) [I-13, 3-(7-fluoro-3-methyl-5-nitro-1-oxo-3,4-dihydrophthalazin-2(1H)-yl)piperidin-2,6-dione] | 0.88 |
| 0.032 | 0.0311 | 0.0522 | 1.26 |  |  |  |  | CN1Cc2c(NCc3ccc(CN4CCN(c5ccc(F)cc5)CC4)cc3)cccc2C(=O)N1C1CCC(=O)NC1=O (centres unmarked) [I-6] | 0.048 |
